# In patent publication US8415453B2, “Lung cancer-targeted peptides and applications thereof” (Academia Sinica, priority 2007, dated 2013):
# Where no end group is shown, it is not given here. The star is where a group is joined. FITC = O=C1OC2(c3ccc(O)cc3Oc3cc(O)ccc32)c2ccc(NC(=S)*)cc21
# What was measured:
# [1] = tested on: A549 cells; test: Peptide-binding assay with FITC-labeled peptide, immunofluorescent staining; assay type: cell-based, human
# Description: (§1) To investigate whether the synthetic peptide and the selected phage clone competed for the same binding site, a peptide-competitive inhibition assay was performed by immunofluorescent staining. Targeting peptide TDSILRSYDWTY (SP5-2) [SEQ ID NO: 2] and control peptide (RLLDTNRPLLPY) [SEQ ID NO: 22] were synthesized and purified by reverse-phase high-performance liquid chromatography to >95% purity by Invitrogene, Inc. (CA, USA). Conjugation of these peptides with FITC or biotin was performed by adding FITC or biotin to the peptide NH2 terminus by the same company.
# [2] = tested on: CL1-5 cells; test: as above; assay type: cell-based, human
# Description: as §1
# [3] = tested on: H23 cells; test: as above; assay type: cell-based, human
# Description: as §1
# [4] = tested on: H460 cells; test: as above; assay type: cell-based, human
# Description: as §1
# [5] = tested on: PC13 cells; test: as above; assay type: cell-based, human
# Description: as §1
# [6] = tested on: CL1-5 cells; test: Peptide-competitive inhibition assay by immunofluorescent staining; assay type: cell-based, human
# Description: as §1
# Phages were mixed with different concentrations of synthetic peptides and incubated with cells at 4° C. for 1 h. The slides were further incubated with mouse anti-M13 monoclonal antibody (Amersham Biosciences, Uppsala, Sweden), followed by incubation with FITC-labeled goat anti-mouse antibody (Jackson ImmunoResearch). The slides were washed and mounted with mounting medium (Vector, Calif., USA). Then the slides were examined under a Leica Universal microscope. The images were merged by SimplePCI (C-IMAGING, PA, USA) software.
# [7] = tested on: CL1-5-derived tumors; test: In vivo tumor homing, phage titers recovered from tumor and organs; design: species or system SCID mice; conditions: for effect of co-injected peptide on recovery of PC5-2 from tumor mass: co-injection of 100 μg peptide
# Description: (§2) To investigate the targeting ability of PC5-2 in vivo, phages were injected into the tail vein of mice bearing CL1-5-derived tumors and recovered after perfusion. SCID mice were injected subcutaneously into the dorsolateral flank with 1×10^7 cancer cells. The mice bearing size-matched lung cancer-derived tumor (tumor sizes about 500 mm3) were injected with targeting phage or control phage through the tail vein. Eight minutes after injection, the mice were treated with diethyl ether to drive them into deep anesthesia. Then the mice were perfused with 50 ml PBS to wash unbound phage. The control organs (brain, heart, and lung) and tumor mass were removed, weighed, and washed three times with cold PBS-PI (protease inhibitor cocktail tablet; Roche, Germany). The organ and tumor samples were homogenized. Then, the phage bound to the tumor mass or control organs were rescued by adding 0.5 ml ER2738 bacterial for 30 minutes at 37° C. The eluted phage particles were titered on agar plates in the presence of 1 mg/L of IPTG/X-Gal. In peptide competitive inhibition experiments, the phages were co-injected with 100 μg of synthetic peptide. We also used the control peptide. The organs and tumor masses were fixed in Bouin's solution for 2 h. After fixation, the samples were embedded in paraffin blocks. The paraffin sections were deparaffinized, rehydrated and subjected to immunostaining using M13 monoclonal antibody, as mentioned above.
# [8] = tested on: CL1-5 cells; test: Flow cytometry of phage-bound cells; assay type: cell-based, human; conditions: peptide competitive inhibition
# Description: Furthermore, to investigate the target molecule expressed on the cell surface of CL1-5, we measured PC5-2-bound cells using flow cytometry. Lung and other cancer cell lines were cultured overnight and then suspended in PBS containing 50 mM EDTA and blocked with blocking buffer at 4° C. for 30 minutes. The cells were washed 2 times with flow buffer (PBS containing 1% fetal bovine serum). The cells were incubated with phages or FITC-labeled peptide. For the peptide competitive inhibition assay, the phages were mixed with different concentrations of synthetic peptides and the mixture was incubated with the cells. After washing two times with cold flow buffer, the phage-bound cells were incubated with anti-M13 monoclonal antibodies at 4° C. for 1 h and then treated with FITC-conjugated goat anti-mouse IgG antibody. The cells were washed two times with cold flow buffer and then applied to a flow cytometer (Becton Dickinson).
# [9] = tested on: NSCLC xenografts; test: In vivo tissue distribution of phage by immunostaining; design: species or system SCID mice; conditions: in vivo homing
# Description: as §2, with “The paraffin sections were deparaffinized, rehydrated and subjected to immunostaining using M13 monoclonal antibody, as mentioned above.” left out
Substance,binding of FITC-labeled peptide to cells [1],binding of FITC-labeled peptide to cells [2],binding of FITC-labeled peptide to cells [3],binding of FITC-labeled peptide to cells [4],binding of FITC-labeled peptide to cells [5],effect of synthetic peptide on binding of PC5-2 phage to CL1-5 cells [6],effect of co-injected peptide on recovery of PC5-2 from tumor mass [7],peptide concentration able to inhibit the PC5-2 binding activity completely ([6]; CL1-5) [µg/mL],effect of peptide on phage bound to CL1-5 cells [8],inhibition of PC5-2 binding to tumor mass ([7]; co-injection of one hundred micrograms of peptide) [%],effect of peptide on targeting of PC5-2 to NSCLC xenograft [9]
FITC-labeled control peptide: control peptide RLLDTNRPLLPY with FITC at the NH2 terminus ({FITC}-RLLDTNRPLLPY),no such binding activity,no such binding activity,no such binding activity,no such binding activity,no such binding activity,–,–,–,–,–,–
RLLDTNRPLLPY [control peptide],–,–,–,–,–,no such effect,no such inhibitory effect,–,–,–,–
TDSILRSYDWTY [SP5-2],–,–,–,–,–,inhibited,markedly inhibited,27,completely inhibited,92,inhibited
